According to patent US20240123079A1 (Seagen Inc., priority 2021, published 2024):

Experiments:
SU-DHL-4 = assay: Cancer cell direct cytotoxicity assay (CellTiter-Glo), SU-DHL-4; assay type: cell-based; settings: Homo sapiens; SU-DHL-4, 96 h, free compound; read-out: Compound X50
Method: Bystander activity of ADCs was evaluated using Renca cancer cells and THP1-Dual™ cells (InvivoGen) which contain an IRF-Lucia luciferase reporter. Cells were cultured in RPMI-1640 (Gibco) with 10% heat-inactivated fetal bovine serum, Pen-Strep (100 U/ml-100 μg/ml, Gibco), HEPES (10 mM, Gibco), sodium pyruvate (1 mM, Gibco), MEM non-essential amino acids (1×, Gibco), GlutaMAX (1×, Gibco), and beta-mercaptoethanol (55 μM, Gibco). Renca cells were plated in a 96-well flat bottom tissue culture-treated clear polystyrene plate (Corning Costar #3596) at 50,000 cells per well in 100 μL. On the day following the initial plating, 50,000 THP1-Dual™ cells were added to each well with the indicated concentration of ADC in a total volume of 200 μL. Supernatant was harvested at 48 hours post addition of the THP1-Dual™ cells. To measure Lucia reporter signal, 10 μL of supernatant was combined with 40 μL of QUANTI-Luc™ Luminescence assay reagent (Invivogen PN: rep-qlc1) in a 96-well clear flat bottom tissue culture-treated black polystyrene plate (Corning Costar PN: 3603) and read on a Perkin Elmer Envision plate reader. In some experiments, HEK 293T cells engineered to express a murine protein typically expressed by immune cells (target antigen C— an immune cell antigen) were plated as above instead of Renca tumor cells. Cancer Cell Direct Cytotoxicity Assay
Cancer cells were counted and plated in 40 μL complete growth media in 384-well, white-walled tissue culture treated plates (Corning). Cell plates were incubated at 37° C. and with 5% CO2 overnight to allow the cells to equilibrate. Stock solutions containing ADCs or free drugs were serially diluted in RPMI-1640+20% fetal bovine serum (FBS). 10 μL of each concentration were then added to each cell plate in duplicate. Cells were then incubated at 37° C. and with 5% CO2 for 96 hours, upon which, the cell plates were removed from the incubator and allowed to cool to room temperature for 30 minutes prior to analysis. […] The luminescence of the samples was measured using an EnVision Multimode plate reader (Perkin Elmer, Waltham, MA). […]

[1] = In vivo cytokine assay, plasma of Renca tumor-bearing mice; set-up: species or system mouse; IFNg production in plasma / IL-1b production in plasma / IL-6 production in plasma / IL12p70 production in plasma / IP10 production in plasma / MIP1a production in plasma / MIP1b production in plasma / TNFa production in plasma: unit not given here
Method: Cytokines were measured in mouse plasma harvested at 3, 6, 24, or 48 hours after treatment with compounds or ADCs using a Milliplex MAP mouse cytokine/chemokine magnetic bead panel assay kit (MCYTOMAG-70k custom 11-plex kit: MCP1, MIP1α, MIP1β, TNFα, IFNγ, IL-10, IL-12p70, IL-6, IL-1β, IP10, RANTES) and analyzed using a Luminex™ MAGPIX™ Instrument System. Values that were outside of the standard curve range (<3.2 or […]) were excluded from calculation of the mean values.

## CCn1nc(C)cc1C(=O)Nc1nc2cc(C(N)=O)cc(OC)c2n1C/C=C/Cn1c(NC(=O)c2cc(C)nn2CC)nc2cc(C(N)=O)cc(OCCCNC)c21 [Compound 12a]
SU-DHL-4
  IC50: > 1000 nM
[1]; 0.2 mg/kg, dose #1, 3 h
  IFNg production in plasma: <3.2
  IL12p70 production in plasma: <3.2
  IL-1b production in plasma: 0.7
  IL-6 production in plasma: 780.0
  IL-10 production in plasma: 15.6
  IP10 production in plasma: 1989.6
  MCP-1 production in plasma: 333.3
  MIP1a production in plasma: 10.3
  MIP1b production in plasma: 727.2
  RANTES production in plasma: <3.2
  TNFa production in plasma: 9.1
[1]; 0.2 mg/kg, dose #1, 6 h
  IFNg production in plasma: 4.6
  IL12p70 production in plasma: <3.2
  IL-1b production in plasma: 0.7
  IL-6 production in plasma: 266.1
  IL-10 production in plasma: <3.2
  IP10 production in plasma: 8985.4
  MCP-1 production in plasma: 7790.8
  MIP1a production in plasma: 101.9
  MIP1b production in plasma: 670.7
  RANTES production in plasma: 130.3
  TNFa production in plasma: 8.1
[1]; 0.2 mg/kg, dose #1, 24 h
  IFNg production in plasma: <3.2
  IL12p70 production in plasma: <3.2
  IL-1b production in plasma: 3.2
  IL-6 production in plasma: 4.1
  IL-10 production in plasma: <3.2
  IP10 production in plasma: 257.9
  MCP-1 production in plasma: 53.0
  MIP1a production in plasma: <3.2
  MIP1b production in plasma: <3.2
  RANTES production in plasma: 3.2
  TNFa production in plasma: 3.2
[1]; 0.2 mg/kg, dose #1, 48 h
  IFNg production in plasma: <3.2
  IL12p70 production in plasma: <3.2
  IL-1b production in plasma: 0.7
  IL-6 production in plasma: 5.6
  IL-10 production in plasma: <3.2
  IP10 production in plasma: 172.8
  MCP-1 production in plasma: 56.8
  MIP1a production in plasma: 10.3
  MIP1b production in plasma: <3.2
  RANTES production in plasma: <3.2
  TNFa production in plasma: 4.3
[1]; 0.2 mg/kg, dose #2, 6 h
  IFNg production in plasma: 16.5
  IL12p70 production in plasma: <3.2
  IL-1b production in plasma: 2.7
  IL-6 production in plasma: 410.9
  IL-10 production in plasma: 1.2
  IP10 production in plasma: >10000
  MCP-1 production in plasma: 5244.6
  MIP1a production in plasma: 104.9
  MIP1b production in plasma: 718.6
  RANTES production in plasma: 133.8
  TNFa production in plasma: 10.0
[1]; 0.6 mg/kg, dose #1, 3 h
  IFNg production in plasma: <3.2
  IL12p70 production in plasma: <3.2
  IL-1b production in plasma: 0.7
  IL-6 production in plasma: 1899.7
  IL-10 production in plasma: 30.4
  IP10 production in plasma: 4826.2
  MCP-1 production in plasma: 1547.8
  MIP1a production in plasma: 251.5
  MIP1b production in plasma: 2471.0
  RANTES production in plasma: 20.1
  TNFa production in plasma: 21.0
[1]; 0.6 mg/kg, dose #1, 6 h
  IFNg production in plasma: 18.3
  IL12p70 production in plasma: 3.1
  IL-1b production in plasma: 5.7
  IL-6 production in plasma: 424.0
  IL-10 production in plasma: 3.8
  IP10 production in plasma: 8828.3
  MCP-1 production in plasma: 12898.6
  MIP1a production in plasma: 137.2
  MIP1b production in plasma: 1050.0
  RANTES production in plasma: 255.0
  TNFa production in plasma: 15.6
[1]; 0.6 mg/kg, dose #1, 24 h
  IFNg production in plasma: <3.2
  IL12p70 production in plasma: <3.2
  IL-1b production in plasma: 1.6
  IL-6 production in plasma: 6.1
  IL-10 production in plasma: <3.2
  IP10 production in plasma: 381.8
  MCP-1 production in plasma: 141.5
  MIP1a production in plasma: <3.2
  MIP1b production in plasma: <3.2
  RANTES production in plasma: 46.2
  TNFa production in plasma: 5.2
[1]; 0.6 mg/kg, dose #1, 48 h
  IFNg production in plasma: <3.2
  IL12p70 production in plasma: <3.2
  IL-1b production in plasma: 5.7
  IL-6 production in plasma: 1.8
  IL-10 production in plasma: <3.2
  IP10 production in plasma: 218.4
  MCP-1 production in plasma: 40.0
  MIP1a production in plasma: 10.3
  MIP1b production in plasma: <3.2
  RANTES production in plasma: 5.0
  TNFa production in plasma: <3.2
[1]; 0.6 mg/kg, dose #2, 6 h
  IFNg production in plasma: 41.5
  IL12p70 production in plasma: 28.4
  IL-1b production in plasma: 5.8
  IL-6 production in plasma: 516.9
  IL-10 production in plasma: <3.2
  IP10 production in plasma: 3996.6
  MCP-1 production in plasma: 9761.2
  MIP1a production in plasma: 115.5
  MIP1b production in plasma: 837.6
  RANTES production in plasma: 621.6
  TNFa production in plasma: 16.7
[1]; 1.8 mg/kg, dose #1, 3 h
  IFNg production in plasma: <3.2
  IL12p70 production in plasma: 3.1
  IL-1b production in plasma: 7.5
  IL-6 production in plasma: 4314.6
  IL-10 production in plasma: 27.3
  IP10 production in plasma: 8222.7
  MCP-1 production in plasma: 5805.3
  MIP1a production in plasma: 1052.6
  MIP1b production in plasma: 7438.6
  RANTES production in plasma: 51.2
  TNFa production in plasma: 46.4
[1]; 1.8 mg/kg, dose #1, 6 h
  IFNg production in plasma: 36.4
  IL12p70 production in plasma: <3.2
  IL-1b production in plasma: 0.7
  IL-6 production in plasma: 543.0
  IL-10 production in plasma: 9.9
  IP10 production in plasma: 7589.2
  MCP-1 production in plasma: 13861.5
  MIP1a production in plasma: 172.2
  MIP1b production in plasma: 1162.7
  RANTES production in plasma: 526.2
  TNFa production in plasma: 21.2
[1]; 1.8 mg/kg, dose #1, 24 h
  IFNg production in plasma: <3.2
  IL12p70 production in plasma: <3.2
  IL-1b production in plasma: 3.2
  IL-6 production in plasma: 6.8
  IL-10 production in plasma: <3.2
  IP10 production in plasma: 595.6
  MCP-1 production in plasma: 143.9
  MIP1a production in plasma: 10.3
  MIP1b production in plasma: <3.2
  RANTES production in plasma: 48.8
  TNFa production in plasma: 3.2
[1]; 1.8 mg/kg, dose #1, 48 h
  IFNg production in plasma: <3.2
  IL12p70 production in plasma: <3.2
  IL-1b production in plasma: 3.2
  IL-6 production in plasma: 1.5
  IL-10 production in plasma: <3.2
  IP10 production in plasma: 223.5
  MCP-1 production in plasma: 2.0
  MIP1a production in plasma: <3.2
  MIP1b production in plasma: <3.2
  RANTES production in plasma: <3.2
  TNFa production in plasma: 3.2
[1]; 1.8 mg/kg, dose #2, 6 h
  IFNg production in plasma: 80.4
  IL12p70 production in plasma: 28.4
  IL-1b production in plasma: 4.6
  IL-6 production in plasma: 1681.6
  IL-10 production in plasma: 7.7
  IP10 production in plasma: 4151.5
  MCP-1 production in plasma: 17185.9
  MIP1a production in plasma: 209.9
  MIP1b production in plasma: 1407.7
  RANTES production in plasma: 892.1
  TNFa production in plasma: 46.4
[1]; plasma of tumor-bearing mice
  systemic pro-inflammatory cytokine (IL-6 and TNF) production: induced robust production of IL-6 and TNF
